Tests used:
Experiment in all cases: relative viability (nuclei count vs DMSO), 5 days (fraction); higher = more cells survive
Dabrafenib + Crizotinib = compound: CC(C)(C)c1nc(-c2cccc(NS(=O)(=O)c3c(F)cccc3F)c2F)c(-c2ccnc(N)n2)s1 [Dabrafenib] + C[C@@H](Oc1cc(-c2cnn(C3CCNCC3)c2)cnc1N)c1c(Cl)ccc(F)c1Cl [Crizotinib] (partner 1 µM)
Method in brief: (§1)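 The day after seeding in 1536-well plates, lung cancer cell lines were treated by pin tool with a single drug, or with a fixed anchor-drug dose together with five library-drug doses (not always all listed) in √10 steps. After 5 days, a combined fix-and-stain solution (final 0.05% Triton X-100, 1% formaldehyde, 1 ug/ml Hoechst) was added. Nuclei counted on 4× images gave relative viability as treated counts over vehicle counts, reported as the median of duplicate plates.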

Dabrafenib + Luminespib = compound: CC(C)(C)c1nc(-c2cccc(NS(=O)(=O)c3c(F)cccc3F)c2F)c(-c2ccnc(N)n2)s1 [Dabrafenib] + CCNC(=O)c1noc(-c2cc(C(C)C)c(O)cc2O)c1-c1ccc(CN2CCOCC2)cc1 [Luminespib] (partner 0.01 µM)
Method in brief: as §1

Dabrafenib + Pemetrexed = compound: CC(C)(C)c1nc(-c2cccc(NS(=O)(=O)c3c(F)cccc3F)c2F)c(-c2ccnc(N)n2)s1 [Dabrafenib] + Nc1nc2[nH]cc(CCc3ccc(C(=O)N[C@@H](CCC(=O)O)C(=O)O)cc3)c2c(=O)[nH]1 [Pemetrexed] (partner 0.2 µM)
Method in brief: as §1

VX-702 + OSI-027 = compound: NC(=O)c1ccc(N(C(N)=O)c2c(F)cccc2F)nc1-c1ccc(F)cc1F [VX-702] + COc1cccc2cc(-c3nc([C@H]4CC[C@H](C(=O)O)CC4)n4ncnc(N)c34)[nH]c12 [OSI-027] (partner 0.5 µM)
Method in brief: as §1

Row | Cell Line | relative viability (Dabrafenib + Crizotinib; first compound 0.003 µM) | relative viability (Dabrafenib + Crizotinib; first compound 0.009487 µM) | relative viability (Dabrafenib + Crizotinib; first compound 0.03 µM) | relative viability (Dabrafenib + Crizotinib; first compound 0.09487 µM) | relative viability (Dabrafenib + Crizotinib; first compound 0.3 µM) | relative viability (Dabrafenib + Luminespib; first compound 0.003 µM) | relative viability (Dabrafenib + Luminespib; first compound 0.009487 µM) | relative viability (Dabrafenib + Luminespib; first compound 0.03 µM) | relative viability (Dabrafenib + Luminespib; first compound 0.09487 µM) | relative viability (Dabrafenib + Luminespib; first compound 0.3 µM) | relative viability (Dabrafenib + Pemetrexed; first compound 0.003 µM) | relative viability (Dabrafenib + Pemetrexed; first compound 0.009487 µM) | relative viability (Dabrafenib + Pemetrexed; first compound 0.03 µM) | relative viability (Dabrafenib + Pemetrexed; first compound 0.09487 µM) | relative viability (Dabrafenib + Pemetrexed; first compound 0.3 µM) | relative viability (VX-702 + OSI-027; first compound 0.02 µM) | relative viability (VX-702 + OSI-027; first compound 0.2 µM) | relative viability (VX-702 + OSI-027; first compound 0.6325 µM) | relative viability (VX-702 + OSI-027; first compound 2 µM)
1 | 201T | 1.04 | 1.01 | 0.939 | 1.03 | 1.03 | 1.08 | 1.1 | 0.967 | 0.983 | 1.06 | 0.332 | 0.352 | 0.332 | 0.307 | 0.287 | 0.732 | 0.499 | 0.69 | 0.735
2 | A549 | 0.805 | 0.763 | 0.887 | 0.737 | 0.768 |  |  |  |  |  |  |  |  |  |  |  |  |  | 
3 | A-427 |  | 0.883 | 0.772 | 0.87 | 1.03 |  | 1 | 0.772 | 0.744 | 1.14 | 0.891 | 1.04 | 0.828 | 0.803 | 0.987 | 0.4 | 0.447 | 0.427 | 0.352
4 | ABC-1 |  | 1.11 | 1.02 | 0.961 | 1.34 | 0.67 | 0.637 |  | 0.449 | 0.875 |  |  |  |  |  | 0.47 | 0.578 | 0.509 | 0.615
5 | BEN |  | 0.985 |  | 0.749 | 1.09 |  | 0.549 |  | 0.344 | 0.332 |  | 0.764 |  | 0.846 | 0.908 | 0.31 | 0.298 | 0.315 | 0.328
6 | CAL-12T | 0.502 | 0.752 | 0.728 | 0.582 | 0.791 | 0.362 | 0.517 | 0.408 | 0.445 | 0.32 | 1.21 | 1.44 | 1.18 | 1.08 | 1.14 | 0.624 | 0.715 | 0.661 | 0.506
7 | COR-L23 | 0.644 | 0.627 | 0.633 | 0.607 | 0.55 | 0.648 | 0.76 | 0.544 | 0.603 | 0.771 | 0.18 | 0.213 | 0.193 | 0.209 | 0.196 | 0.989 | 0.75 | 0.766 | 0.961
8 | COR-L 105 | 0.843 | 0.987 | 0.67 | 0.719 | 0.851 | 0.852 | 0.936 | 0.916 | 0.949 | 0.977 | 1 | 1.2 | 0.799 | 1.19 | 1.29 | 0.661 | 0.679 | 0.688 | 0.517
9 | Calu-6 | 0.681 | 0.833 | 0.786 | 0.555 | 0.577 |  |  |  |  |  |  |  |  |  |  |  |  |  | 
10 | ChaGo-K-1 |  | 1.16 | 1.15 | 1.03 | 1.12 | 0.57 | 0.647 | 0.517 | 0.529 | 0.47 | 0.219 | 0.256 | 0.263 | 0.246 | 0.26 | 0.641 | 0.624 | 0.567 | 0.566
11 | EBC-1 |  | 0.193 | 0.207 | 0.196 | 0.245 |  |  |  |  |  |  |  |  |  |  |  |  |  | 
12 | EKVX | 0.875 | 1.12 | 0.783 | 0.702 | 1.01 | 0.996 | 1.03 | 0.852 | 0.819 | 0.897 |  | 0.484 | 0.419 | 0.408 | 0.395 | 0.811 | 0.607 | 0.675 | 0.668
